# Legend:
# [1] = test system: C. albicans; test: Antimicrobial efficacy of the photoactive solution after adding a low concentration of hydrogen peroxide; format: cell-based, Candida albicans; conditions: for C. albicans amount compared to the NC group: no light exposure
# Description: The negative control (referred to as NC) group was the fungal solution of C. albicans not being treated with RB, hydrogen peroxide, and light exposure. The light control (referred to as LC) group was the fungal solution of C. albicans exposed to light but contained neither RB nor hydrogen peroxide. […] The hydrogen peroxide (referred to as H2O2) group was the fungal solution of C. albicans treated with 0.03 wt % hydrogen peroxide without RB for 15 minutes but not subjected to the light exposure treatment. The photodynamic therapy (referred to as PDT) group was the fungal solution of C. albicans treated with 0.1 wt % RB without hydrogen peroxide for 15 minutes and subjected to 35 J/cm^2 green light exposure treatment. The photodynamic therapy with 0.03 wt hydrogen peroxide (referred to as H2O2+PDT) group was the fungal solution of C. albicans treated with 0.1 wt % RB and 0.03 wt % hydrogen peroxide for 15 minutes and subjected to the 35 J/cm^2 green light exposure treatment. FIG. 6 was a bar chart illustrating the amount of C. albicans after different treatments in the fungal solution according to some embodiments of the present invention. The x-axis represented the NC group, the LC group, the DC group, the H2O2 group, the PDT group, and the H2O2+PDT group from left to right. The y-axis represented the C. albicans amount (unit: log CFU/mL).
# [2] = test system: Candida albicans (drug-resistant strain, BCRC 21538 / ATCC 10231); test: Antimicrobial efficacy of rose bengal-PDT (colony counting after green light exposure); format: cell-based; conditions: 0.2 wt % RB; for log reduction value of the amounts of C. albicans: compared to without light exposure; for antimicrobial rate: equivalent of log reduction
# Description: A drug-resistant strain of Candida albicans was bought from the Bioresource Collection and Research Center (BCRC), Food Industry Research and Development Institute (FIRDI), 331, Shipin Rd., East Dist., Hsinchu City, Taiwan (postcode: 300193) under the accession number of BCRC 21538. The same strain could also be bought from American Type Culture Collection (ATCC), VA, USA under an accession number of ATCC 10231.
# The Candida albicans was grown and prepared in a fungal solution with an amount of 1×10^7 CFU/mL and mixed with an equal volume of rose bengal (RB) solution (i.e., the mixed volume ratio was 1:1) to obtain a mixed solution containing 0.2 wt % RB (0.2 wt % RB group).
# A portion of the mixed solution containing 0.2 wt % RB and fungi was exposed to green light of 10 J/cm^2 or 20 J/cm^2 at 25±1° C., and another portion of the mixed solution was not treated with light exposure. The light source of the aforementioned green light was a commercial green light LED with an emission peak at the wavelength of 520 nm. […] Noted that three drops represented three repeats. […] In the control group, the fungal solution was mixed with an equal volume of PBS.
SMILES,C. albicans amount compared to the NC group ([1]; DC group: 0.1 wt % RB for 15 minutes),"log reduction value of the C. albicans amount ([1]; PDT group: 0.1 wt % RB without hydrogen peroxide, 15 minutes, 35 J/cm^2 green light, compared to NC group)",log reduction value of the amounts of C. albicans ([2]; 10 J/cm^2 green light (520 nm)),antimicrobial rate ([2]; 10 J/cm^2 green light) [%],log reduction value of the amounts of C. albicans ([2]; 20 J/cm^2 green light (520 nm)),antimicrobial rate ([2]; 20 J/cm^2 green light) [%],C. albicans amount compared to the NC group ([1]; H2O2 group: 0.03 wt % hydrogen peroxide without RB for 15 minutes)
"O=C1OC2(c3cc(I)c(O)c(I)c3Oc3c2cc(I)c(O)c3I)c2c(Cl)c(Cl)c(Cl)c(Cl)c21 [RB, rose bengal]",no significant difference,2.5,1,90,6,99.9999,–
OO [hydrogen peroxide],–,–,–,–,–,–,no significant difference

# Reference: US20240293548A1, “CONTACT LENS FOR PHOTODYNAMIC INACTIVATION OF GERMS, PRODUCT AND METHOD OF TREATING FUNGAL KERATITIS BY APPLYING THE SAME” (NATIONAL CHENG KUNG UNIVERSITY, priority 2023, published 2024)
